Reference: patent US12187722B2, “Small molecule inhibitors of TEAD transcription factors” (The General Hospital Corporation, priority 2019, dated 2025)
Several values for one entry are separate records, joined by “and”; a condition that tells them apart may be missing. Identical values can stand only once. Like-named read-outs stand apart in the source and are kept apart here.

Legend:
TEAD2 [1] = molecular target: T1, TEAD2 (Homo sapiens (Human), UniProt Q15562); assay: CMP assay (CPM fluorescence detection of free CoA); assay type: biochemical
Procedure: 7-Diethylamino-3-(4′-Maleimidylphenyl)-4-Methylcoumarin (CPM), which reacts with thiol of CoA liberated in the enzymatic reaction, and gives fluorescent signal (excitation ˜350-380, emission-460-480). The assay detects the product (free CoA) which is produced from palmitoyl-CoA as a method to detect the enzymatic activity. Test compounds that inhibit TEAD activity are therefore able to block the CMP fluorescent signal.
TEAD2/4 protein (10 μL of a 50 ng/μL solution) and a solution the test compound (0.5 μL, variable concentration) were pre-incubated for 30 min at r.t. A mixture prepared from MES pH 6.4 buffer (6.5 μL of a 50 mM solution), EDTA (1 μL of a 20 mM solution), palmitoyl-CoA (1 μL of a 20 μM solution), and 7-diethylamino-3-(4′-maleimidylphenyl)-4-methylcoumarin (1 μL of a 10 μM solution) was added and the resulting mixture was mixed well using a pipette. The solution was then incubated at r.t. for 30-120 min. in the dark, and fluorescence was detected at […] every 30 min. until the fluorescence signal is saturated. An IC50 for the ability of the compound to inhibit fluorescence is calculated from the results.

TEAD2 [2] = molecular target: T1, TEAD2; assay: In vitro palmitoylation (TEAD2 autopalmitoylation, streptavidin blot); assay type: biochemical; settings: compound at 10 μM
Procedure, shortened: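 Recombinant GST- or His6-TEAD2 (500 ng) preincubated 15 min with compound, then 30 min with 1 μM alkyne palmitoyl-CoA; click-labelled with biotin-azide (1 h, RT). Streptavidin-HRP blot band intensity quantified after SDS-PAGE; inhibition of autopalmitoylation relative to DMSO control.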

[3] = Table 3, unit inferred, read-out: TEAD2 palmitoylation IC50
[4] = Table 2, read-out: IC50 μM (CMP assay)

T1 sequence (Q15562 whole entry): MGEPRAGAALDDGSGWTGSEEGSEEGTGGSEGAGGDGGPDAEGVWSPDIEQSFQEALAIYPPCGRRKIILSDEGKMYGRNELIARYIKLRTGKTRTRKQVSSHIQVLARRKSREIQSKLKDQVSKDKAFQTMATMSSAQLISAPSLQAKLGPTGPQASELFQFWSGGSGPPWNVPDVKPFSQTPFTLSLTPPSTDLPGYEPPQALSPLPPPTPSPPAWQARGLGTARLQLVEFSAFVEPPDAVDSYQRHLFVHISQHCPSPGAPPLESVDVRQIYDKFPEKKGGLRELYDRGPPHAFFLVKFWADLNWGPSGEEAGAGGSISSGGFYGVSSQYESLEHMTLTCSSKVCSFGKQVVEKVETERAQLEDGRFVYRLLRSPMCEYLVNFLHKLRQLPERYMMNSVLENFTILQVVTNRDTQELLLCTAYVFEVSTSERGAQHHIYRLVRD

| IC50 (TEAD2 [1]; [3]) [µM] | inhibition at 10 µM (TEAD2 [2]; Table 3) [%] | IC50 (TEAD2 [1]; [4]) [µM] | inhibition at 10 µM (TEAD2 [2]; Table 2) [%] | further results | SMILES |
| --- | --- | --- | --- | --- | --- |
| – | – | – | – | IC50 (TEAD2 [1]; CMP assay, read-out: CMP IC50): 5.09 µM; inhibition at 10 µM (TEAD2 [2]): 70% | C=CC(=O)c1ccccc1Nc1cccc(Nc2ccc(C34CC5CC(CC(C5)C3)C4)cc2)c1 |
| 1.45 | 93 | – | – | – | COc1ccc(Nc2ccc(N(C)c3ccc(C(F)(F)F)cc3)cc2)c(C(=O)O)c1 [CP-521] |
| 1.53 | 96 | – | – | – | COc1ccc(Nc2ccc(N(C)c3ccc(C4CCCCC4)cc3)cc2)c(C(=O)O)c1 [CP-522] |
| 0.38 | 76 | – | – | – | COc1ccc(Nc2ccc(N(C)c3ccc(S(F)(F)(F)(F)F)cc3)cc2)c(C(=O)O)c1 [CP-528] |
| 0.68 | 85 | – | – | – | COc1ccc(Nc2ccc(N(C)c3ccc(C4CC5CCC4C5)cc3)cc2)c(C(=O)O)c1 (stereo not shown) [CP-538] |
| 0.45 | 86 | – | – | – | COc1ccc(Nc2ccc(N(C)c3ccc(OC(F)(F)F)cc3)cc2)c(C(=O)O)c1 [CP-548] |
| 2.4 | 85 | – | – | – | COc1ccc(Nc2ccc(N(C)c3ccc(C4CCCCC4)cc3)cc2F)c(C(=O)O)c1 [CP-549] |
| 0.002 | 91 | – | – | – | COc1ccc(Nc2ccc(N(C)c3ccc(C45CC6CC(CC(C6)C4)C5)cc3)cc2C)c(C(=O)O)c1 [CP-551] |
| 0.59 | 100 | – | – | – | COc1ccc(Nc2ccc(N(C)c3ccc(OCC(F)(F)F)cc3)cc2)c(C(=O)O)c1 [CP-553] |
| 0.01 | 96 | – | – | – | COc1ccc(Nc2ccc(N(C)c3ccc(C)cc3)cc2)c(C(=O)O)c1 [CP-554] |
| 0.01 | 100 | – | – | – | COc1ccc(Nc2ccc(N(C)c3ccc(N4CCCCC4)cc3)cc2)c(C(=O)O)c1 [CP-555] |
| 0.011 | 90 | – | – | – | COc1ccc(Nc2ccc(N(C)c3ccc(C4CCCCC4)cc3)cc2C)c(C(=O)O)c1 [CP-560] |
| 0.51 | 100 | – | – | – | COc1ccc(Nc2ccc(N(C)c3ccc(OCC(F)(F)F)cc3)cc2C)c(C(=O)O)c1 [CP-565] |
| 0.38 | 99 | – | – | – | O=C(O)c1ccccc1Nc1ccc(Oc2ccc(C3CCCCC3)cc2Cl)nc1 [CP-566] |
| 0.65 | 73 | – | – | – | COc1ccc(Nc2ccc(Oc3ccc(C45CC6CC(C)(CC(C)(C6)C4)C5)cc3Cl)cc2F)c(C(=O)O)c1 [CP-570] |
| 0.36 | 94 | – | – | – | COc1ccc(Nc2ccc(N(C)c3ccc(S(F)(F)(F)(F)F)cc3)cc2C)c(C(=O)O)c1 [CP-571] |
| 0.23 | – | – | – | % of inhibition of TEAD2 palmitoylation at 10 μM (TEAD2 [2]; Table 3): 96% | COc1ccc(Nc2ccc(N(C)c3ccc(C4CCC(C)CC4)cc3)cc2)c(C(=O)O)c1 (stereo not shown) [CP-583] |
| 0.21 | – | – | – | % of inhibition of TEAD2 palmitoylation at 10 μM (TEAD2 [2]; Table 3): 85% | COc1ccc(Nc2ccc(N(C)c3ccc(C4CCC(C)CC4)cc3)cc2)c(C(=O)O)c1 (stereo not shown) [CP-584] |
| 0.32 | 86 | – | – | – | COc1ccc(Nc2ccc(N(C)c3ccc(C4CC5CCC4C5)cc3)cc2F)c(C(=O)O)c1 (stereo not shown) [CP-585] |
| 1.57 | 97 | – | – | – | COc1ccc(Nc2ccc(N(C)c3ccc(OC(F)(F)F)cc3)cc2F)c(C(=O)O)c1 [CP-589] |

| IC50 (TEAD2 [1]; [3]) [µM] | inhibition at 10 µM (TEAD2 [2]; Table 3) [%] | IC50 (TEAD2 [1]; [4]) [µM] | inhibition at 10 µM (TEAD2 [2]; Table 2) [%] | further results | SMILES |
| --- | --- | --- | --- | --- | --- |
| 0.22 | 96 | – | – | – | COc1ccc(Nc2ccc(N(C)c3ccc(OC(F)(F)F)cc3)cc2C)c(C(=O)O)c1 [CP-590] |
| 0.03 | 78 | – | – | – | COc1ccc(Nc2ccc(N(C)c3ccc(C4CCC(C)(C)CC4)cc3)cc2)c(C(=O)O)c1 [CP-593] |
| 0.05 | 74 | – | – | – | COc1ccc(Nc2ccc(N(C)c3ccc(C4CCCCC4)cc3)nc2)c(C(=O)O)c1 [CP-598] |
| 0.75 | 96 | – | – | – | Cc1cc(N(C)c2ccc(C3CCCCC3)cc2)ccc1Nc1ccc(OC2CC2)cc1C(=O)O [CP-619] |
| 0.382 | 87 | – | – | – | COc1ccc(Nc2ccc(N(C)c3ccc(C4CCCCC4)cc3)cc2C2CC2)c(C(=O)O)c1 [CP-626] |
| – | – | 0.377 | 99 | % of inhibition of TEAD2 palmitoylation at 10 μM (TEAD2 [2]; Table 2): 84% and 82% | O=C(O)c1ccccc1Nc1ccc(Nc2ccc(C34CC5CC(CC(C5)C3)C4)cc2Cl)cc1 [Compound 31] |
| – | – | 0.446 | 98 | – | O=C(O)c1cccc(Nc2ccc(Nc3ccc(C45CC6CC(CC(C6)C4)C5)cc3Cl)cc2)n1 [Compound 90] |
| – | – | 0.207 | 100 | – | CN(c1ccc(N(C)c2ccccc2C(=O)O)cc1)c1ccc(C23CC4CC(CC(C4)C2)C3)cc1 [Compound 100] |
| – | – | 0.346 | 100 | – | CN(c1ccc(N(C)c2ncccc2C(=O)O)cc1)c1ccc(C23CC4CC(CC(C4)C2)C3)cc1Cl [Compound 109] |
| – | – | 0.268 | 100 | – | O=C(O)c1cccnc1Nc1cnn(Cc2ccc(C34CC5CC(CC(C5)C3)C4)cc2Cl)c1 [Compound 112] |
| – | – | 0.106 | 100 | – | O=C(O)c1cccc(Nc2cc(Nc3ccc(C45CC6CC(CC(C6)C4)C5)cc3Cl)cc(C(F)(F)F)c2)n1 [Compound 119] |
| – | – | 0.771 | 96 | – | CN(c1ccc(Nc2ccc(C34CC5CC(CC(C5)C3)C4)cc2Cl)cc1)c1ncccc1C(=O)O [Compound 125] |
| – | – | 0.312 | 95 | – | CN(c1ccc(N(C)c2ncccc2C(=O)O)cc1)c1ccc(C23CC4CC(CC(C4)C2)C3)cc1 [Compound 139] |
| – | – | 0.173 | 97 | – | CN(c1ccc(Oc2ccc(C34CC5CC(CC(C5)C3)C4)cc2Cl)cc1)c1ccccc1C(=O)O [Compound 168] |
| – | – | 0.227 | 100 | – | CN(c1ccc(N(C)c2ccccc2C(=O)O)cc1)c1ccc(C23CC4CC(C)(CC(C)(C4)C2)C3)cc1 [Compound 178] |
| – | – | 0.274 | 89 | – | COc1ccc(Nc2ccc(N(C)c3ccc(C45CC6CC(CC(C6)C4)C5)cc3)cc2)c(C(=O)O)c1 [Compound 250] |
| – | – | 0.053 | 100 | – | O=C(O)c1cccnc1Nc1ccc(Oc2ccc(C34CC5CC(CC(C5)C3)C4)cc2Cl)cc1 [Compound 252] |
| – | – | 0.099 | 100 | – | CC12CC3CC(C)(C1)CC(c1ccc(Oc4ccc(Nc5ccccc5C(=O)O)cc4)c(Cl)c1)(C3)C2 [Compound 253] |
| – | – | 0.297 | 100 | – | CC12CC3CC(C)(C1)CC(c1ccc(Oc4ccc(Nc5ncccc5C(=O)O)cc4)c(Cl)c1)(C3)C2 [Compound 254] |
